Migration data for 1 compound are collected here from patent US20230145868A1, “UREA INHIBITORS OF MICRO-RNA” (Board of Regents, The University of Texas System, priority 2020, published 2023).

The subject of the assay is AsPC1 cell line. The assay is described as follows: Migration assay, AsPC1. Format: cell-based, human. Particulars: vs DMSO.

`Cc1ccc(F)c(NC(=O)Nc2ccc(-c3cccc4cn[nH]c34)cc2)c1` [Example 4, 1-(4-(1H-indazol-7-yl)phenyl)-3-(2-fluoro-5-methylphenyl)urea]: the migration result was “decreased migration”.
